One molecule from patent US20190202836A1, “SELECTIVE DUAL INHIBITORS OF PI3 DELTA AND GAMMA PROTEIN KINASES” (Rhizen Pharmaceuticals SA, priority 2014, published 2019) can be followed below.

Data set [1] is described as follows: Plasma protein binding (equilibrium dialysis), dog. The data set is classed as in vitro ADME. As to conditions: pH 7.4, 37° C. On the procedure:
(§1) Below is provided the procedure for measuring plasma protein binding (using an equilibrium dialysis method). 745 μL of plasma was transferred into a 2 ml micro centrifuge tube. To that 5 μL of Compound A1 (150 μM) was added. Samples were mixed in the table top vortexer for 2 minutes. 50 μL plasma (n=2) was transferred in a pre-labeled 1.5 mL micro centrifuge tube treated as 0 hour sample.
(§2) The remaining 650 μL plasma sample were incubated for 30 minutes at 37° C. in a water bath. After 30 minute incubation, 50 μL plasma (n=2) was removed in a pre-labelled 1.5 mL micro centrifuge tube treated as 0.5 hour sample. 200 μL of the plasma sample (n=2) was transferred into the sample chamber which was indicated by the red ring. The red insert was placed into the base plate and 350 μL of buffer was transferred into the buffer chamber. Plates were incubated at 37° C. at approximately 100 RPM on an orbital shaker or 20 RPM on an up-and-down shaker for 4 hours. 50 μL of post dialysis-sample from the buffer and the plasma chambers were transferred into a pre-labelled micro centrifuged tube. 50 μL of plasma was added to the buffer samples and an equal volume of buffer (KH2PO4 Buffer pH 7.4) to the collected plasma samples. 150 μL of methanol containing internal standard (Tolbutamide 250 ng/ml) was added to precipitate the protein and release compound. […]
(Equilibrium dialysis compares concentrations on both sides of a semipermeable membrane.)

Data set [2] in a line: Plasma protein binding (equilibrium dialysis), monkey. The data set is classed as in vitro ADME. The settings on record: pH 7.4, 37° C. On the procedure:
as §1, §2

A further data set has as its target PI3Kβ (Homo sapiens, UniProt P42338). Briefly: Assay 1: Fluorescent (HTRF) determination of PI3 kinase enzyme activity, PI3Kβ. Type of data set: biochemical. The text has this:
Phosphoinositide 3 kinases (PI3K) belong to a class of lipid kinases that play a critical role in the regulation of several key cellular processes. The PI3K are capable of phosphorylating the 3-hydroxy position of phosphoinositols thereby generating second messengers involved in downstream signaling events. The homogenous time resolved fluorescence (HTRF) assay allows detection of 3,4,5-triphosphate (PIPS) formed as a result of phosphorylation of phosphotidylinositol 4,5-biphosphate (PIP2) by PI3K isoforms such as α, β, γ or δ.
PI3K isoform activity for α, β, γ or δ was determined using a PI3K human HTRF™ Assay Kit (Millipore, Billerica, Mass.) with modifications. All incubations were carried out at room temperature. 0.5 μl of 40× inhibitor (in 100% DMSO) or 100% DMSO were added to each well of a 384-well white plate (Greiner Bio-One, Monroe, N.C.) containing 14.5 μl 1× reaction buffer/PIP2 (10 mM MgCl2, 5 mM DTT, 1.38 μM PIP2) mix with or without enzyme, followed by 5 μl/well of 400 μM ATP and incubated for an additional 30 minutes. The reaction was terminated by adding 5 μl/well stop solution (Millipore, Billerica, Mass.). 5 μl of detection mix (Millipore, Billerica, Mass.) was then added to each well and incubated for 6-18 hours in the dark. HRTF ratio was measured on a microplate reader (BMG Labtech., Germany) at an excitation wavelength of 337 nm and emission wavelengths of 665 and 615 nm with an integration time of 400 msec counting delay of 50 msec.
(In general: TR-FRET usually uses a lanthanide donor and a delayed reading to cut background.)

A further data set concerns the target T1, PI3K beta (Mus musculus, UniProt Q8BTI9).
T1 construct: endogenous in cells; host or cells: 3T3 fibroblasts
In words: Assay 4A2: LPA induced AktS473 phosphorylation in 3T3 fibroblasts. The settings on record: LPA 5 μM, read-out: Cellular IC50 PI3K beta (LPA induced pAKT in 3T3 fibroblasts). Type of data set: cell-based. The procedure: The objective of this study was to determine the effect of Compound A1 on PI3Kβ kinase mediated LPA induced AktS473 phosphorylation in 3T3 fibroblasts.
3T3 cells were treated with desired concentrations of the test compound for 15 minutes. 1 ml of 2× LPA was added such that the final concentration was 5 μM and incubated for 5 minutes.
Media was discarded and washed with 1 ml of ice-cold 1× PBS.
250 μl of cell lysis buffer was added and incubated on ice for 30 minutes.
Samples were centrifuged and supernatant was maintained at −80° C. until analysis.
Samples were analyzed by Western Blotting using pAKT (S473) as the primary and anti-rabbit IgG-HRP as a secondary antibody.
Intensity of the bands was determined using ImageJ 1.42q (NIH, USA) and normalized to Actin (loading control). Data was plotted using GraphPad Prism (Version 5.02).

The test system of the next data set is TNFα. Briefly: Assay 6A: Cytokine assay in human PBMC, LPS induced TNFα. The data set is classed as cell-based. The settings on record: LPS 1 μg/ml, 6 hours, 2-3 independent experiments, read-out: EC50, antigen-induced TNFα. On the procedure: The objective of this study was to assess the inhibitory potential of Compound A1 on antigen-induced cytokine release in human PBMC
• Heparinized human whole blood was diluted 1:1 with PBS, over laid on leukocyte separation medium and centrifuged at 400 g for 40 minutes. • Buffy layer was removed and washed with PBS • 0.15*10^6 of PBMCs were plated in 100 μl per well in RPMI media and incubated for 2 h. • 50 μl of 3× of the compound dilution in media was added and incubated for 15 min. • TNFα—induced with 50 μl of LPS in RPMI such that final concentration was 1 μg/ml. Supernatant was collected at 6 hours. • IL-2-induced with 50 μl of PHA in RPMI such that final concentration was 20 μg/ml. Supernatant was collected at 24 hours. • IL-4-induced with 50 μl of PHA in RPMI such that final concentration was 20 μg/ml.
EC50 values were calculated from 2-3 independent experiments.

The test system of data set [3] is pAKT in isolated mouse splenocytes. Briefly: Assay 6C: Inhibition of AKT phosphorylation in isolated mouse splenocytes. Type of data set: cell-based. The settings on record: Splenocyte, 0.5 h, LPS 20 μg/mL, 30 minutes, ELISA, read-out: EC50, reduction in phosphorylation of AKT. On the procedure: The PI3K pathway is regulated downstream by AKT, a serine-threonine kinase that modulates several oncogenic processes such as cell proliferation, growth, and survival. Because the spleen is a repertoire for vast quantities of B- and T-lymphocytes, inhibition of LPS-induced AKT phosphorylation was determined ex vivo using isolated mouse splenocytes. Cells were plated and incubated with a desired concentration of Compound A1 for 15 minutes followed by induction with LPS (20 μg/mL) for 30 minutes. Following induction, cells were lysed and pAKT was determined by ELISA using pAKT^S473 capture/detection antibody pair and anti-mouse-HRP secondary antibody. Blank subtracted absorbance values were obtained to calculate percent inhibition of pAKT in test samples.
In general terms: In an ELISA, binding on a coated surface is turned into a signal by an enzyme label.

In another data set the test system is Female Wistar rats. In words: Assay 11: Collagen induced arthritis (CIA) in Wistar rats. As to conditions: rat CIA, dosed therapeutically, 10 mg/kg/QD. Type of data set: in vivo.

Molecules are shown by their SMILES.

Chain of PI3Kβ (P42338 whole entry, canonical isoform): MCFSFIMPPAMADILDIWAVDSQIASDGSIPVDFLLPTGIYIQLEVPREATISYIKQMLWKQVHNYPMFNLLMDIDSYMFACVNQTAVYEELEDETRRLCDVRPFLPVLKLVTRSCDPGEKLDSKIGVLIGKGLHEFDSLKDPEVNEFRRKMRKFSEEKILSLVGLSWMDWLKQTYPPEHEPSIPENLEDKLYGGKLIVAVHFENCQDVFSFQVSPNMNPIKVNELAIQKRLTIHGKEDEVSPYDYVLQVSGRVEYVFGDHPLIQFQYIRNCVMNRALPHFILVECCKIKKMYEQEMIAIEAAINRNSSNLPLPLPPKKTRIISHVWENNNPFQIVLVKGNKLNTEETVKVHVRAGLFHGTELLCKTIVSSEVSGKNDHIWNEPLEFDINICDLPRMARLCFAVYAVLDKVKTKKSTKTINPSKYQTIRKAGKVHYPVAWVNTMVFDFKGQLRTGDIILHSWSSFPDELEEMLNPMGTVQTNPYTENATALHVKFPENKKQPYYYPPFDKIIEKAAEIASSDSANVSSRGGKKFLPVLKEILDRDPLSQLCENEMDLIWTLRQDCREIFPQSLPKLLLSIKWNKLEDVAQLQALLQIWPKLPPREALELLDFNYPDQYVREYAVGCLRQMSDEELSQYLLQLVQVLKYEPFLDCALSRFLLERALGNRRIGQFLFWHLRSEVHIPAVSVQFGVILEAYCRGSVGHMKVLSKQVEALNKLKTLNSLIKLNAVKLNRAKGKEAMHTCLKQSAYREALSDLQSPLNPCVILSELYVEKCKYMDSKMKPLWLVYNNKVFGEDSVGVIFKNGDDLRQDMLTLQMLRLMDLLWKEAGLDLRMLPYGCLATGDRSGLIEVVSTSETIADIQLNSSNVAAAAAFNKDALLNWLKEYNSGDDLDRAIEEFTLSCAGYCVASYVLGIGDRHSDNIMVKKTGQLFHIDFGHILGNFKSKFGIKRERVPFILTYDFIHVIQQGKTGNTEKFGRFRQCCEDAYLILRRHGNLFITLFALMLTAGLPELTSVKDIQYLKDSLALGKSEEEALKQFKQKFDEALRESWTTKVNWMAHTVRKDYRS
Chain of PI3Kβ (P27986 whole entry partner, canonical isoform): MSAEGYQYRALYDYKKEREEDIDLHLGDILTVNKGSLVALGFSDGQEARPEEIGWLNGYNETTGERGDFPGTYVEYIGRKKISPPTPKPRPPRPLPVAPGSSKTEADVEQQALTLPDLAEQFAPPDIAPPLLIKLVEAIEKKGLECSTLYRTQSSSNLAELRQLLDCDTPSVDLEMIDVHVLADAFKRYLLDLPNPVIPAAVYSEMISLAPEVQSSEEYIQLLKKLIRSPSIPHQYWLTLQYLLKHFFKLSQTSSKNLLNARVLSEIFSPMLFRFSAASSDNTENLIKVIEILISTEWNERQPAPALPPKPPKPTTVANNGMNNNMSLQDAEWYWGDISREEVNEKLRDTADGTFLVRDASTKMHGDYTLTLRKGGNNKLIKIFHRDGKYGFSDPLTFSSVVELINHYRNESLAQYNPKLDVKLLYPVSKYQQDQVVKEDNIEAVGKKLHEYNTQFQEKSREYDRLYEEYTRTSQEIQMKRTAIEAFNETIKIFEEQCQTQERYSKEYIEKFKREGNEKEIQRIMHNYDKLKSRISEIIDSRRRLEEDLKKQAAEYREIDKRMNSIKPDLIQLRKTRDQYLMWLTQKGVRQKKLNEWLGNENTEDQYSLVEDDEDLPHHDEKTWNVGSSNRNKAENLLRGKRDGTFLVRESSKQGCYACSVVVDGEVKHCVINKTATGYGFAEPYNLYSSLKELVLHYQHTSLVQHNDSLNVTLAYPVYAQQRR
T1 sequence (Q8BTI9 whole entry): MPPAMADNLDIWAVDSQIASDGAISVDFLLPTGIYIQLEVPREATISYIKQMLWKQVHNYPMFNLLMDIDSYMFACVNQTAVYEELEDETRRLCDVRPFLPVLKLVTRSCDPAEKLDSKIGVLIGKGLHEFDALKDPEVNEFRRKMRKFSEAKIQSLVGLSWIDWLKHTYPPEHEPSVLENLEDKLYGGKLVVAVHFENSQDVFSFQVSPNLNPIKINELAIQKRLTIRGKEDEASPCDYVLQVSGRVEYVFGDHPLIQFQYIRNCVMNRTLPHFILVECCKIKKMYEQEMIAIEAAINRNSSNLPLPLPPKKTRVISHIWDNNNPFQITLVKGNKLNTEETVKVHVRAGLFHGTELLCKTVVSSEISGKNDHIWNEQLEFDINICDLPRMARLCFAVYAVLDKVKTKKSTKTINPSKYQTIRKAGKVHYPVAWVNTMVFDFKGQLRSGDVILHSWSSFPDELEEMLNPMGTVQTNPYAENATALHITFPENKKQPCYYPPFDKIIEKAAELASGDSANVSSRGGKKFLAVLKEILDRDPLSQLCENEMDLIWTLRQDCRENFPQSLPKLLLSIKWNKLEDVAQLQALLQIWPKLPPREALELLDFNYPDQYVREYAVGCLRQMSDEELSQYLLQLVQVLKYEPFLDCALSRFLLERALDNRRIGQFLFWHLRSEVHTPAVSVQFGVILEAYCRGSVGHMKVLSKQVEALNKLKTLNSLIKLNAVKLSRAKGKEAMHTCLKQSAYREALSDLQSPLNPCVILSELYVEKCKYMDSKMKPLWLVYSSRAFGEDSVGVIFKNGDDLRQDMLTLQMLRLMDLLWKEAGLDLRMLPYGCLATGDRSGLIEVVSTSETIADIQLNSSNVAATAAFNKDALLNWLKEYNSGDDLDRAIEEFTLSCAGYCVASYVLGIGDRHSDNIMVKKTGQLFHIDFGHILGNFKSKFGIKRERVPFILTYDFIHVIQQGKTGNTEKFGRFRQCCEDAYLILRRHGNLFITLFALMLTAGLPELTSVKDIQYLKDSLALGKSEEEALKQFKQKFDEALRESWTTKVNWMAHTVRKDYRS
T1 sequence (P26450 whole entry partner): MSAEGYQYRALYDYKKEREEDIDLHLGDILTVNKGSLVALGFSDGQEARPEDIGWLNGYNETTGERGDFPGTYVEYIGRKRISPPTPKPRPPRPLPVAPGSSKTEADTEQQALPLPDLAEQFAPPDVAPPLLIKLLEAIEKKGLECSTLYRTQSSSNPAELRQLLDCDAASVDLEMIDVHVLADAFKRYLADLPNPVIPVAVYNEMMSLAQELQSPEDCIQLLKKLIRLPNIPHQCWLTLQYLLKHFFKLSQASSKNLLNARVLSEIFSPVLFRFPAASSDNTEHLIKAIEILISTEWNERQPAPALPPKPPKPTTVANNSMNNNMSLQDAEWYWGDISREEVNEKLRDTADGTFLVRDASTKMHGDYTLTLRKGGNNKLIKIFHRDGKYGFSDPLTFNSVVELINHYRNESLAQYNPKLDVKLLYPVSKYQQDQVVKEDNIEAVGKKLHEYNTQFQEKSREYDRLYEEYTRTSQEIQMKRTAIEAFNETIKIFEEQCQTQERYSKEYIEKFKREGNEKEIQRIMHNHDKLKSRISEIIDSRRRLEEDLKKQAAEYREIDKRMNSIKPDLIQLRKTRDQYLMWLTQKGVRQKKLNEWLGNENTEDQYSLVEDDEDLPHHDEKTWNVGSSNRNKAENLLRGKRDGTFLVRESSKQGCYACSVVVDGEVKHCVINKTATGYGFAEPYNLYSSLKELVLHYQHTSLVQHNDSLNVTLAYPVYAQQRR

As a reminder, the fraction unbound is the share of the substance not bound to proteins or other matrix. One may read the inhibition as the share of the control response that was lost under treatment. As usually defined, the IC50 is the concentration needed to halve the response being measured. As a reminder, the EC50 is the concentration needed to bring the measured effect to its halfway point. Regarding `COc1ccc(-c2nn([C@@H](C)c3oc4cccc(F)c4c(=O)c3-c3cccc(F)c3)c3ncnc(N)c23)cc1NS(C)(=O)=O` [Compound A1, (S)—N-(5-(4-amino-1-(1-(5-fluoro-3-(3-fluorophenyl)-4-oxo-4H-chromen-2-yl)ethyl)-1H-pyrazolo[3,4-d]pyrimidin-3-yl)-2-methoxyphenyl)methanesulfonamide], in data set [1], the fraction unbound at 4 h, 1 μM is 0.0415. This molecule gave an unbound share (fraction unbound) at 4 h, 1 μM in data set [2] of 0.0529. Besides, testing at 1 µM on PI3Kβ gave an inhibition of 46.8%. Besides, the midpoint of inhibition at PI3Kβ (HTRF enzyme assay), the IC50, lay at 1360 nM. For the same molecule, on PI3Kβ (selectivity profile, enzyme IC50), the “Fold-Selectivity PI3Kβ” value is reported as over 45 fold. The half-maximal inhibitory concentration (IC50) on PI3K beta came out at 1320 nM. Besides, in the data set with TNFα, the EC50 was 7.1 nM. Further, the EC50 in data set [3] was found to be 347 nM. In the data set with Female Wistar rats, the “inhibition of cartilage (histopathology of all the hind and fore paws)” value was found to be 46.51%; the “inhibition of inflammation (histopathology of all the hind and fore paws)” value is 58.3%; the “inhibition of pannus (histopathology of all the hind and fore paws)” value is given as 49.18%; the reducing ankle diameter result is recorded as “significant efficacy”. Further, the “reducing the average paw volumes of both the hind paws” value in the data set with Female Wistar rats is reported as “significant efficacy”. In the data set with Female Wistar rats (prophylactic and therapeutic paws), the “reduction of the clinical score” value is reported as “significant efficacy”.
